Patent publication US8952024B2, “Herbicidal pyrimidone derivatives” (E I du Pont de Nemours and Company, priority 2009, dated 2015)

Columns and labels:
Assay in all cases: Test B pre-/postemergence plant response
Type in all cases: in vivo
[1] = system: wheat (Triticum aestivum); details: for Wheat plant response rating (0 to 100 scale): 62 g ai/ha, 0 is no effect, 13 to 15 days
Outline: (§1)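 Ratings reflect visual comparison with untreated controls 13 to 15 days after application, from 0 (no effect) to 100 (complete control). Application was preemergence to seeded loam/sand soil or postemergence to 1- to 4-leaf plants, with compound in a non-phytotoxic, surfactant-containing solvent.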

[2] = system: yellow nutsedge (Cyperus esculentus); details: for Nutsedge, Yellow plant response rating (0 to 100 scale): 62 g ai/ha, 0 is no effect, 13 to 15 days
Outline: as §1

[3] = system: downy bromegrass (Bromus tectorum); details: for Bromegrass, Downy plant response rating (0 to 100 scale): 62 g ai/ha, 0 is no effect, 13 to 15 days
Outline: as §1

[4] = system: velvetleaf (Abutilon theophrasti); details: for Velvetleaf plant response rating (0 to 100 scale): 62 g ai/ha, 0 is no effect, 13 to 15 days
Outline: as §1

[5] = system: large crabgrass (Digitaria sanguinalis); details: for Crabgrass, Large plant response rating (0 to 100 scale): 62 g ai/ha, 0 is no effect, 13 to 15 days
Outline: as §1

[6] = system: johnsongrass (Sorghum halepense); details: for Johnsongrass plant response rating (0 to 100 scale): 62 g ai/ha, 0 is no effect, 13 to 15 days
Outline: as §1

kochia (Kochia scoparia) = details: for Kochia plant response rating (0 to 100 scale): 62 g ai/ha, 0 is no effect, 13 to 15 days
Outline: as §1

[7] = system: giant foxtail (Setaria faberii); details: for Foxtail, Giant plant response rating (0 to 100 scale): 62 g ai/ha, 0 is no effect, 13 to 15 days
Outline: as §1

[8] = system: woolly cupgrass (Eriochloa villosa); details: for Cupgrass, Woolly plant response rating (0 to 100 scale): 62 g ai/ha, 0 is no effect, 13 to 15 days
Outline: as §1

[9] = system: lambsquarters (Chenopodium album); details: for Lambsquarters plant response rating (0 to 100 scale): 62 g ai/ha, 0 is no effect, 13 to 15 days
Outline: as §1

[10] = system: pigweed (Amaranthus retroflexus); details: for Pigweed plant response rating (0 to 100 scale): 62 g ai/ha, 0 is no effect, 13 to 15 days
Outline: as §1

[11] = system: goosegrass (Eleusine indica); details: for Goosegrass plant response rating (0 to 100 scale): 62 g ai/ha, 0 is no effect, 13 to 15 days
Outline: as §1

[12] = system: green foxtail (Setaria viridis); details: for Foxtail, Green plant response rating (0 to 100 scale): 62 g ai/ha, 0 is no effect, 13 to 15 days
Outline: as §1

[13] = 31 g ai/ha, postemergence, scale 0 to 100, 0 is no effect, 100 is complete control
[14] = postemergence, 100 is complete control
[15] = Postemergence, 250 g ai/ha, scale 0 to 100 (0 no effect, 100 complete control)
[16] = Postemergence, 125 g ai/ha, visual rating after 13 to 15 days, scale 0 (no effect) to 100 (complete control)

Which “Plant response rating, Wheat” value [1, 13] does the source give for `CCCCCn1c(-c2ccccc2)ncc(C(=O)C2=C(O)CCCC2=O)c1=O` [Compound 89] here?
The value was 0.

What about the “Wheat plant response rating (0 to 100 scale)” value [1, 14] of the same molecule?
Its value is 5.

And the “Plant response rating, Wheat” value [1, 15]?
The value was 10.

And the “Plant response rating, Nutsedge, Yellow” value [2, 13]?
The value was 35.

What about the “Nutsedge, Yellow plant response rating (0 to 100 scale)” value [2, 14] of the same molecule?
Its value is 55.

What about the “Plant response rating, Nutsedge, Yellow” value [2, 15] of the same molecule?
Its value is 75.

What about the “Plant response rating, Bromegrass, Downy” value [3, 13] of the same molecule?
Its value is 0.

What about the “Bromegrass, Downy plant response rating (0 to 100 scale)” value [3, 14] of the same molecule?
Its value is 0.

What about the “Plant response rating, Bromegrass, Downy” value [3, 16] of the same molecule?
Its value is 5.

What about the “Plant response rating, Bromegrass, Downy” value [3, 15] of the same molecule?
The value was 5.

And the “Plant response rating, Velvetleaf” value [4, 13]?
The value was 90.

And the “Velvetleaf plant response rating (0 to 100 scale)” value [4, 14]?
The value was 95.

And the “Plant response rating, Velvetleaf” value [4, 15]?
Its value is 100.

What about the “Plant response rating, Crabgrass, Large” value [5, 13] of the same molecule?
The value was 85.

What about the “Crabgrass, Large plant response rating (0 to 100 scale)” value [5, 14] of the same molecule?
The value was 95.

What about the “Plant response rating, Crabgrass, Large” value [5, 16] of the same molecule?
Its value is 95.

And the “Plant response rating, Crabgrass, Large” value [5, 15]?
Its value is 98.

And the “Plant response rating, Johnsongrass” value [6, 13]?
Its value is 25.

And the “Johnsongrass plant response rating (0 to 100 scale)” value [6, 14]?
The value was 90.

What about the “Plant response rating, Johnsongrass” value [6, 15] of the same molecule?
Its value is 100.

And the “Plant response rating, Kochia” value (kochia (Kochia scoparia); [13])?
Its value is 65.

And the “Kochia plant response rating (0 to 100 scale)” value (kochia (Kochia scoparia); [14])?
The value was 75.

And the “Plant response rating, Kochia” value (kochia (Kochia scoparia); [15])?
Its value is 100.

And the “Plant response rating, Foxtail, Giant” value [7, 13]?
The value was 70.

And the “Foxtail, Giant plant response rating (0 to 100 scale)” value [7, 14]?
The value was 85.

What about the “Plant response rating, Foxtail, Giant” value [7, 15] of the same molecule?
Its value is 98.

And the “Plant response rating, Cupgrass, Woolly” value [8, 13]?
The value was 35.

And the “Cupgrass, Woolly plant response rating (0 to 100 scale)” value [8, 14]?
Its value is 50.

And the “Plant response rating, Cupgrass, Woolly” value [8, 16]?
The value was 65.

What about the “Plant response rating, Cupgrass, Woolly” value [8, 15] of the same molecule?
The value was 75.

And the “Plant response rating, Lambsquarters” value [9, 13]?
Its value is 95.

And the “Lambsquarters plant response rating (0 to 100 scale)” value [9, 14]?
Its value is 98.

And the “Plant response rating, Lambsquarters” value [9, 15]?
The value was 100.

And the “Plant response rating, Pigweed” value [10, 13]?
Its value is 80.

And the “Pigweed plant response rating (0 to 100 scale)” value [10, 14]?
The value was 98.

What about the “Plant response rating, Pigweed” value [10, 15] of the same molecule?
The value was 100.

What about the “Plant response rating, Goosegrass” value [11, 13] of the same molecule?
Its value is 55.

And the “Goosegrass plant response rating (0 to 100 scale)” value [11, 14]?
The value was 65.

What about the “Plant response rating, Goosegrass” value [11, 15] of the same molecule?
The value was 80.

And the “Plant response rating, Foxtail, Green” value [12, 13]?
Its value is 60.

What about the “Foxtail, Green plant response rating (0 to 100 scale)” value [12, 14] of the same molecule?
The value was 70.

What about the “Plant response rating, Foxtail, Green” value [12, 15] of the same molecule?
Its value is 80.

Which “Plant response rating, Wheat” value [1, 13] does the source give for `CC(C)n1c(-c2ccccc2)ncc(C(=O)C2=C(O)CCCC2=O)c1=O` [Compound 95] here?
The value was 0.

And the “Wheat plant response rating (0 to 100 scale)” value [1, 14]?
Its value is 0.

What about the “Plant response rating, Wheat” value [1, 15] of the same molecule?
The value was 0.

What about the “Plant response rating, Nutsedge, Yellow” value [2, 13] of the same molecule?
The value was 75.

And the “Nutsedge, Yellow plant response rating (0 to 100 scale)” value [2, 14]?
The value was 75.

And the “Plant response rating, Nutsedge, Yellow” value [2, 15]?
Its value is 85.

And the “Plant response rating, Bromegrass, Downy” value [3, 13]?
The value was 0.

What about the “Bromegrass, Downy plant response rating (0 to 100 scale)” value [3, 14] of the same molecule?
The value was 0.

What about the “Plant response rating, Bromegrass, Downy” value [3, 16] of the same molecule?
Its value is 0.

And the “Plant response rating, Bromegrass, Downy” value [3, 15]?
Its value is 0.

What about the “Plant response rating, Velvetleaf” value [4, 13] of the same molecule?
Its value is 85.

And the “Velvetleaf plant response rating (0 to 100 scale)” value [4, 14]?
The value was 95.

What about the “Plant response rating, Velvetleaf” value [4, 15] of the same molecule?
The value was 100.

What about the “Plant response rating, Crabgrass, Large” value [5, 13] of the same molecule?
The value was 45.

And the “Crabgrass, Large plant response rating (0 to 100 scale)” value [5, 14]?
Its value is 65.

What about the “Plant response rating, Crabgrass, Large” value [5, 16] of the same molecule?
The value was 75.

What about the “Plant response rating, Crabgrass, Large” value [5, 15] of the same molecule?
The value was 80.

And the “Plant response rating, Johnsongrass” value [6, 13]?
The value was 5.

And the “Johnsongrass plant response rating (0 to 100 scale)” value [6, 14]?
Its value is 10.

What about the “Plant response rating, Johnsongrass” value [6, 15] of the same molecule?
Its value is 45.

What about the “Plant response rating, Kochia” value (kochia (Kochia scoparia); [13]) of the same molecule?
Its value is 80.

And the “Kochia plant response rating (0 to 100 scale)” value (kochia (Kochia scoparia); [14])?
The value was 100.

And the “Plant response rating, Kochia” value (kochia (Kochia scoparia); [15])?
The value was 100.

What about the “Plant response rating, Foxtail, Giant” value [7, 13] of the same molecule?
The value was 45.

What about the “Foxtail, Giant plant response rating (0 to 100 scale)” value [7, 14] of the same molecule?
The value was 65.

What about the “Plant response rating, Foxtail, Giant” value [7, 15] of the same molecule?
Its value is 85.

And the “Plant response rating, Cupgrass, Woolly” value [8, 13]?
The value was 45.

And the “Cupgrass, Woolly plant response rating (0 to 100 scale)” value [8, 14]?
The value was 55.

And the “Plant response rating, Cupgrass, Woolly” value [8, 16]?
Its value is 65.

And the “Plant response rating, Cupgrass, Woolly” value [8, 15]?
The value was 65.

And the “Plant response rating, Lambsquarters” value [9, 13]?
Its value is 80.

And the “Lambsquarters plant response rating (0 to 100 scale)” value [9, 14]?
The value was 98.

What about the “Plant response rating, Lambsquarters” value [9, 15] of the same molecule?
Its value is 100.

And the “Plant response rating, Pigweed” value [10, 13]?
Its value is 85.

And the “Pigweed plant response rating (0 to 100 scale)” value [10, 14]?
Its value is 98.

What about the “Plant response rating, Pigweed” value [10, 15] of the same molecule?
The value was 100.

And the “Plant response rating, Goosegrass” value [11, 13]?
The value was 65.

What about the “Goosegrass plant response rating (0 to 100 scale)” value [11, 14] of the same molecule?
Its value is 75.

What about the “Plant response rating, Goosegrass” value [11, 15] of the same molecule?
Its value is 90.

What about the “Plant response rating, Foxtail, Green” value [12, 13] of the same molecule?
The value was 20.

And the “Foxtail, Green plant response rating (0 to 100 scale)” value [12, 14]?
Its value is 50.

What about the “Plant response rating, Foxtail, Green” value [12, 15] of the same molecule?
The value was 90.
